Test results reported in the OligoGym collection.
HELM strings list units from the 5' end as sugar, base in round brackets, then linkage (d deoxyribose, r ribose, m 2'-O-methyl, p phosphodiester). Strings are as the collection lists them; they lack the last nucleoside at the 3' end of the tested compound. [moe] = 2'-O-(2-methoxyethyl) (MOE); [sp] = phosphorothioate linkage; [m5C] = 5-methylcytosine

What follows are substances tested against UBE3A-ATS (assay: mouse, dose not given). Details: ASO.

Substance | 3 h FOB score [score 0-7]
RNA1{[moe](A)[sp].[moe](A)[sp].[moe](G)[sp].[moe](G)[sp].[moe](G)[sp].d(T)[sp].d(A)[sp].d(A)[sp].d(T)[sp].d(A)[sp].d([m5C])[sp].d(G)[sp].d(G)[sp].d(A)[sp].d([m5C])[sp].[moe]([m5C])[sp].[moe](T)[sp].[moe]([m5C])[sp].[moe](A)}$$$$ (last 3' nucleoside missing) | 6.5
RNA1{[moe](A)[sp].[moe](A)p.[moe](A)p.[moe](A)p.[moe](T)p.d(A)[sp].d([m5C])[sp].d([m5C])[sp].d(A)[sp].d([m5C])[sp].d(A)[sp].d(A)[sp].d(A)[sp].d(G)[sp].d(A)[sp].[moe](T)p.[moe](A)p.[moe](G)[sp].[moe](G)}$$$$ (last 3' nucleoside missing) | 2.5
RNA1{[moe](A)[sp].[moe](A)p.[moe](A)p.[moe](A)p.[moe](T)p.d([m5C])[sp].d([m5C])[sp].d(A)[sp].d(T)[sp].d(T)[sp].d(T)[sp].d(G)[sp].d(T)[sp].d([m5C])[sp].d([m5C])[sp].[moe](A)p.[moe](G)p.[moe](T)[sp].[moe]([m5C])}$$$$ (last 3' nucleoside missing) | 2.3
RNA1{[moe](A)[sp].[moe](A)p.[moe](A)p.[moe](A)p.[moe]([m5C])p.d(G)[sp].d([m5C])[sp].d(A)[sp].d(A)[sp].d(T)[sp].d(G)[sp].d(T)[sp].d(A)[sp].d(T)[sp].d([m5C])[sp].[moe](A)p.[moe](G)p.[moe](G)[sp].[moe]([m5C])}$$$$ (last 3' nucleoside missing) | 0.7
RNA1{[moe](A)[sp].[moe](A)p.[moe](A)p.[moe](T)p.[moe]([m5C])p.d([m5C])[sp].d(A)[sp].d(T)[sp].d(T)[sp].d(T)[sp].d(G)[sp].d(T)[sp].d([m5C])[sp].d([m5C])[sp].d(A)[sp].[moe](G)p.[moe](T)p.[moe]([m5C])[sp].[moe](T)}$$$$ (last 3' nucleoside missing) | 4.2
RNA1{[moe](A)[sp].[moe](A)p.[moe](A)p.[moe]([m5C])p.[moe](G)p.[moe]([m5C])p.d(A)[sp].d(A)[sp].d(T)[sp].d(G)[sp].d(T)[sp].d(A)[sp].d(T)[sp].d([m5C])[sp].d(A)[sp].d(G)[sp].[moe](G)p.[moe]([m5C])[sp].[moe](A)}$$$$ (last 3' nucleoside missing) | 3
RNA1{[moe](A)[sp].[moe](A)p.[moe](A)p.[moe]([m5C])p.d(G)[sp].d([m5C])[sp].d(A)[sp].d(A)[sp].d(T)[sp].d(G)[sp].d(T)[sp].d(A)[sp].d(T)[sp].d([m5C])[sp].[moe](A)p.[moe](G)p.[moe](G)p.[moe]([m5C])[sp].[moe](A)}$$$$ (last 3' nucleoside missing) | 2
RNA1{[moe](A)[sp].[moe](A)p.[moe](G)p.[moe](T)p.[moe](A)p.d(T)[sp].d(A)[sp].d(G)[sp].d(A)[sp].d(T)[sp].d(G)[sp].d([m5C])[sp].d([m5C])[sp].d(T)[sp].d([m5C])[sp].[moe](T)p.[moe]([m5C])p.[moe]([m5C])[sp].[moe](T)}$$$$ (last 3' nucleoside missing) | 4
RNA1{[moe](A)[sp].[moe](A)p.[moe](G)p.[moe](T)p.[moe](G)p.d(G)[sp].d(A)[sp].d(T)[sp].d([m5C])[sp].d(T)[sp].d([m5C])[sp].d(T)[sp].d(T)[sp].d(G)[sp].d(G)[sp].[moe](G)p.[moe]([m5C])p.[moe](A)[sp].[moe](G)}$$$$ (last 3' nucleoside missing) | 4.8
RNA1{[moe](A)[sp].[moe](A)p.[moe](G)p.[moe](T)p.[moe]([m5C])p.d(A)[sp].d(T)[sp].d(T)[sp].d([m5C])[sp].d([m5C])[sp].d([m5C])[sp].d([m5C])[sp].d(A)[sp].d([m5C])[sp].d([m5C])[sp].[moe]([m5C])p.[moe](T)p.[moe](G)[sp].[moe](G)}$$$$ (last 3' nucleoside missing) | 1.8
RNA1{[moe](A)[sp].[moe](A)p.[moe]([m5C])p.[moe](A)p.[moe](A)p.d([m5C])[sp].d(G)[sp].d(G)[sp].d(T)[sp].d(T)[sp].d(G)[sp].d([m5C])[sp].d(A)[sp].d(G)[sp].d(G)[sp].[moe](G)p.[moe](A)p.[moe]([m5C])[sp].[moe](A)}$$$$ (last 3' nucleoside missing) | 6.8
RNA1{[moe](A)[sp].[moe](A)p.[moe]([m5C])p.[moe](G)p.[moe]([m5C])p.[moe](A)p.d(A)[sp].d(T)[sp].d(G)[sp].d(T)[sp].d(A)[sp].d(T)[sp].d([m5C])[sp].d(A)[sp].d(G)[sp].d(G)[sp].[moe]([m5C])p.[moe](A)[sp].[moe](A)}$$$$ (last 3' nucleoside missing) | 4.7
RNA1{[moe](A)[sp].[moe](A)p.[moe]([m5C])p.[moe](G)p.[moe]([m5C])p.d(A)[sp].d(A)[sp].d(T)[sp].d(G)[sp].d(T)[sp].d(A)[sp].d(T)[sp].d([m5C])[sp].d(A)[sp].d(G)[sp].[moe](G)p.[moe]([m5C])p.[moe](A)[sp].[moe](A)}$$$$ (last 3' nucleoside missing) | 1
RNA1{[moe](A)[sp].[moe](A)p.[moe]([m5C])p.[moe](G)p.d([m5C])[sp].d(A)[sp].d(A)[sp].d(T)[sp].d(G)[sp].d(T)[sp].d(A)[sp].d(T)[sp].d([m5C])[sp].d(A)[sp].[moe](G)p.[moe](G)p.[moe]([m5C])p.[moe](A)[sp].[moe](A)}$$$$ (last 3' nucleoside missing) | 2
RNA1{[moe](A)[sp].[moe](A)p.[moe]([m5C])p.[moe](T)p.[moe](G)p.d([m5C])[sp].d(T)[sp].d(T)[sp].d([m5C])[sp].d(A)[sp].d([m5C])[sp].d([m5C])[sp].d(A)[sp].d(T)[sp].d(T)[sp].[moe](T)p.[moe](T)p.[moe](G)[sp].[moe](A)}$$$$ (last 3' nucleoside missing) | 0
RNA1{[moe](A)[sp].[moe](A)p.[moe]([m5C])p.[moe](T)p.[moe](T)p.d([m5C])[sp].d(A)[sp].d(T)[sp].d([m5C])[sp].d(A)[sp].d(A)[sp].d(T)[sp].d(A)[sp].d(T)[sp].d(T)[sp].[moe](T)p.[moe]([m5C])p.[moe]([m5C])[sp].[moe]([m5C])}$$$$ (last 3' nucleoside missing) | 1
RNA1{[moe](A)[sp].[moe](G)p.[moe](A)p.[moe](G)p.[moe](A)p.d([m5C])[sp].d([m5C])[sp].d(T)[sp].d([m5C])[sp].d(A)[sp].d(A)[sp].d(G)[sp].d(A)[sp].d([m5C])[sp].d([m5C])[sp].[moe](T)p.[moe](A)p.[moe](T)[sp].[moe](A)}$$$$ (last 3' nucleoside missing) | 3.8
RNA1{[moe](A)[sp].[moe](G)p.[moe](A)p.[moe](G)p.[moe](G)p.d(A)[sp].d(T)[sp].d(T)[sp].d(T)[sp].d(A)[sp].d(G)[sp].d(A)[sp].d(G)[sp].d(T)[sp].d(T)[sp].[moe](A)p.[moe](A)p.[moe](A)[sp].[moe](A)}$$$$ (last 3' nucleoside missing) | 2.8
RNA1{[moe](A)[sp].[moe](G)p.[moe](A)p.[moe](G)p.[moe](G)p.d([m5C])[sp].d([m5C])[sp].d([m5C])[sp].d(T)[sp].d([m5C])[sp].d(T)[sp].d(T)[sp].d(G)[sp].d(T)[sp].d(T)[sp].[moe](T)p.[moe]([m5C])p.[moe](A)[sp].[moe](A)}$$$$ (last 3' nucleoside missing) | 1.8
RNA1{[moe](A)[sp].[moe](G)p.[moe](A)p.[moe](G)p.[moe](T)p.d(A)[sp].d(G)[sp].d(T)[sp].d([m5C])[sp].d(T)[sp].d(A)[sp].d(T)[sp].d(T)[sp].d(G)[sp].d(G)[sp].[moe](T)p.[moe](G)p.[moe](T)[sp].[moe](T)}$$$$ (last 3' nucleoside missing) | 3.8
RNA1{[moe](A)[sp].[moe](G)p.[moe](A)p.[moe](T)p.[moe](A)p.d([m5C])[sp].d(T)[sp].d([m5C])[sp].d(A)[sp].d([m5C])[sp].d(T)[sp].d([m5C])[sp].d(G)[sp].d([m5C])[sp].d(T)[sp].[moe](T)p.[moe](T)p.[moe](T)[sp].[moe]([m5C])}$$$$ (last 3' nucleoside missing) | 3.2
RNA1{[moe](A)[sp].[moe](G)p.[moe](A)p.[moe]([m5C])p.[moe](T)p.d(A)[sp].d(T)[sp].d([m5C])[sp].d([m5C])[sp].d(T)[sp].d(G)[sp].d(G)[sp].d(T)[sp].d(A)[sp].d(T)[sp].[moe](G)p.[moe](A)p.[moe]([m5C])[sp].[moe](T)}$$$$ (last 3' nucleoside missing) | 6
RNA1{[moe](A)[sp].[moe](G)p.[moe](A)p.[moe]([m5C])p.[moe]([m5C])p.d(T)[sp].d(A)[sp].d(T)[sp].d(A)[sp].d(G)[sp].d(G)[sp].d(A)[sp].d([m5C])[sp].d([m5C])[sp].d(T)[sp].[moe]([m5C])p.[moe](A)p.[moe](G)[sp].[moe](G)}$$$$ (last 3' nucleoside missing) | 4
RNA1{[moe](A)[sp].[moe](G)p.[moe](G)p.[moe](A)p.[moe](T)p.d(T)[sp].d(A)[sp].d(A)[sp].d(A)[sp].d(A)[sp].d(G)[sp].d(T)[sp].d(T)[sp].d(G)[sp].d(A)[sp].[moe](A)p.[moe](A)p.[moe]([m5C])[sp].[moe](A)}$$$$ (last 3' nucleoside missing) | 4
RNA1{[moe](A)[sp].[moe](G)p.[moe](G)p.[moe](A)p.[moe](T)p.d(T)[sp].d([m5C])[sp].d(A)[sp].d(A)[sp].d(T)[sp].d(A)[sp].d(G)[sp].d(T)[sp].d(G)[sp].d(T)[sp].[moe](A)p.[moe](G)p.[moe](G)[sp].[moe](T)}$$$$ (last 3' nucleoside missing) | 6.7
RNA1{[moe](A)[sp].[moe](G)p.[moe](G)p.[moe](A)p.[moe]([m5C])p.d([m5C])[sp].d(T)[sp].d([m5C])[sp].d(A)[sp].d(G)[sp].d(G)[sp].d(A)[sp].d(G)[sp].d(A)[sp].d(T)[sp].[moe](T)p.[moe](G)p.[moe](T)[sp].[moe](A)}$$$$ (last 3' nucleoside missing) | 2.3
